Assay results from patent US20110207166A1, “Human bone marrow microenvironments and uses thereof” (priority 2009, published 2011).
Entries after “also recorded” stand apart in the source; their conditions may differ.

How the values were obtained:
[1] = test system: AML cells in MSC-coated scaffolds; test: In vivo mesenchymal leukemic niche in MSC-coated scaffolds implanted subcutaneously in NOD/SCID mice, CD45 immunohistochemistry; conditions: 4 weeks; in situ injection twice per week; SDF-1/CXCL12 10 ng/ml; AMD3100 10 μM; human CD45 stain
Method: Polyurethane scaffolds (10×1.5 mm—Biomerix), coated in vitro with human BM-derived MSC (day 5-7), were implanted in a subcutaneous pocket on the dorsum of non-irradiated NOD/SCID mice (Jackson laboratory) according to an approved IACUC animal protocol. Empty scaffolds (without MSC seeding) were used as negative controls. CD34+ HSC (1×10^5—Stem Cell Technology, Vancouver) or primary AML cells (1×10^7—cryopreserved and thawed) were injected either in situ or retro-orbital in the mice and analyzed for engraftment. The mice were treated twice per week with in situ injections of SDF-1/CXCL12 (10 ng/ml), AMD3100 (10 μM) or PBS (control). At week 1, week 4 and week 8, mice were sacrificed and the scaffolds, femurs and spleens were processed and evaluated for cell survival in the mesenchymal niche by immunohistochemistry.
Harvested scaffolds were fixed in formalin solution 10%, neutral buffered (HistoPak-StatLab Medical Products-TX) and paraffin embedded and cut on slides. […]
Each experiment was performed in duplicate, with two mice per experiment in each treatment arm and one mouse as a negative control. Multiple slides per scaffold were analyzed for imaging by immunohistochemistry and light microscopy. […]

[2] = test system: MSC niche; test: In vitro mesenchymal stem cell niche (cobblestone area) formation, phase contrast imaging; assay type: cell-based, human; conditions: SDF-1/CXCL12 10 ng/ml, AMD3100 10 μM
Method: Fresh human BM samples were obtained from orthopedic surgery after informed consent (Tissue Donor Program of the Feinstein Institute). The buffy coat containing the mononucleated cells (MNC) was isolated by Ficoll-density gradient separation (Stem Cell Technology, Vancouver). MNC were plated at low density in 6-well plates in Alpha-Mem (Lonza), 20% heat-inactivated fetal bovine serum (Hyclone), 5 mM L-Glutamine and 100 Units/ml Peni/Strep (Stem Cell Technologies) for overnight adherence. After 24-48 hours, the non-adherent cell fraction was discharged by rigorous pipetting. At day 5, single-cell derived mesenchymal colonies were processed for immunohistochemistry (Vectastain ABC kit, Vector Laboratories, Burlingame, Calif.). MSC were stained for CD90/Thy-1 (Mouse anti-human mAb, Clone 5E10, BD Pharmingen), CD105 (Mouse anti-human mAb, clone 266, BD Pharmingen), CD146 (Mouse monoclonal [P1H12] Abcam). Cells were also labeled for flow cytometry with CD34-APC (Miltenyi Biotec), CD105-FITC (R&D), CD45-FITC, CD90-PECy5, CD146-PE and CXCR4-PE (BD Pharmingen) including matching isotype controls.
Polyurethane scaffold test discs (10×1.5 mm—Biomerix) were placed inside a cloning cylinder (Millipore Corporation, MA), one cylinder in each well of a 24-well plate (Falcon, BD). […]

[3] = target: CXCR4 (Homo sapiens, UniProt P61073); conditions: AML; reference [42]; cited from earlier work
Sequence of CXCR4 (P61073 whole entry): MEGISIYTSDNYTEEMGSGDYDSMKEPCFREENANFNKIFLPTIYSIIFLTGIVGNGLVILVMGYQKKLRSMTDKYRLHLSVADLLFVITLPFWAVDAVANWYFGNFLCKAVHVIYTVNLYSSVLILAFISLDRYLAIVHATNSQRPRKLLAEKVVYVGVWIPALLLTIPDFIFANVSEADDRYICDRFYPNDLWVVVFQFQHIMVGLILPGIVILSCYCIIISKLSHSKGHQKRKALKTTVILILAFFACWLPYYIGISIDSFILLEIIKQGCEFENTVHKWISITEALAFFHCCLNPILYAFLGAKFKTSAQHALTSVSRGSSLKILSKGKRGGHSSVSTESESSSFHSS

Molecule | MSC stromal layer and adherence of AML cells in MSC-coated scaffold [1] | cobblestone area formation / migration of hematopoietic progenitors underneath the MSC [2] | effect on chemoprotective effects of the stromal cell-leukemia interaction [3]
c1cc(CN2CCCNCCNCCCNCC2)ccc1CN1CCCNCCNCCCNCC1 [AMD3100] | the stromal lining is thin and disrupted at several points, leaving AML cells free floating in proximity; also recorded: interact with AML homing by stem cell niche disruption at the level of the stromal layer; also recorded: thin stromal lining that was disrupted at several points, leaving AML cells free floating in proximity; also recorded: the MSC stroma became ruffled and non-adherent and AML remained only loosely attached | MSC remain empty and hematopoietic progenitors do not migrate underneath the MSC; also recorded: the cytoplasm remained empty | –
c1ccc(CNCc2ccc(CN3CCCNCCNCCCNCC3)cc2)nc1 [AMD3465] | – | – | prevent the chemoprotective effects of the stromal cell-leukemia interaction
SDF-1/CXCL12: chemokine stromal-cell derived factor, ligand of CXCR4 (R&D Systems) | thick proliferation of the MSC stromal layer with multiple adherent AML cells present; also recorded: upregulates adhesion of AML cells to the stroma; also recorded: induces hyperproliferation of the mesenchymal stroma compartment | cobblestone area formation | –
